pIC50: −log10 of the molar value. The source made the active and inactive calls. The rule behind the calls is not given here.
Tests used:
[1] = cells; conditions: Homo sapiens, MO-91
Description: Antiproliferative activity against TrK fused human MO-91 cells

[2] = Toxicity in mouse xenografted with mouse BaF3 cells transfected with LMNA-NTRK1 assessed as weight loss at 100 mg/kg, po administered once daily for 21 days and measured twice weekly; conditions: in vivo, 504 h
[3] = Volume of distribution in Sprague-Dawley rat at 3 mg/kg measured up to 24 hrs by LC-MS/MS analysis; assay type: ADME, organism-based; conditions: in vivo
[4] = Toxicity in mouse xenografted with mouse BaF3 cells transfected with ETV6-NTRK3 assessed as unkempt appearance at 100 mg/kg, po administered once daily for 21 days and measured twice weekly; conditions: in vivo, 504 h
[5] = Toxicity in mouse xenografted with mouse BaF3 cells transfected with LMNA-NTRK1-G595R mutant assessed as unkempt appearance at 100 mg/kg, po administered once daily for 21 days and measured twice weekly; conditions: in vivo, 504 h
[6] = Toxicity in […] xenografted with mouse BaF3 cells transfected with LMNA-NTRK1-G595R mutant assessed as death at 100 mg/kg, po administered once daily for 21 days and measured twice weekly; assay type: organism-based; conditions: in vivo, 504 h, time 21 day
[7] = tested on: BaF3; assay: Antitumor activity against mouse BaF3 cells transfected with ETV6-NTRK3 cells xenografted in mouse assessed as tumor growth inhibition at 100 mg/kg, po administered once daily for 21 days and measured twice weekly; conditions: time 21.0 day
[8] = cells; conditions: Homo sapiens, CUTO-3
Description: Antiproliferative activity against TrK fused human CUTO-3 cells

[9] = biological target: T1, High affinity nerve growth factor receptor (Homo sapiens, UniProt P04629); assay: Inhibition of human TrkA (440 to end residues) assessed as residual activity at 0.5 uM using KKKSPGEYVNIEFG as substrate measured after 40 mins in presence of [gamma33P]ATP by scintillation counting method relative to control
Target sequence in this assay (P04629 33-796 limits assumed): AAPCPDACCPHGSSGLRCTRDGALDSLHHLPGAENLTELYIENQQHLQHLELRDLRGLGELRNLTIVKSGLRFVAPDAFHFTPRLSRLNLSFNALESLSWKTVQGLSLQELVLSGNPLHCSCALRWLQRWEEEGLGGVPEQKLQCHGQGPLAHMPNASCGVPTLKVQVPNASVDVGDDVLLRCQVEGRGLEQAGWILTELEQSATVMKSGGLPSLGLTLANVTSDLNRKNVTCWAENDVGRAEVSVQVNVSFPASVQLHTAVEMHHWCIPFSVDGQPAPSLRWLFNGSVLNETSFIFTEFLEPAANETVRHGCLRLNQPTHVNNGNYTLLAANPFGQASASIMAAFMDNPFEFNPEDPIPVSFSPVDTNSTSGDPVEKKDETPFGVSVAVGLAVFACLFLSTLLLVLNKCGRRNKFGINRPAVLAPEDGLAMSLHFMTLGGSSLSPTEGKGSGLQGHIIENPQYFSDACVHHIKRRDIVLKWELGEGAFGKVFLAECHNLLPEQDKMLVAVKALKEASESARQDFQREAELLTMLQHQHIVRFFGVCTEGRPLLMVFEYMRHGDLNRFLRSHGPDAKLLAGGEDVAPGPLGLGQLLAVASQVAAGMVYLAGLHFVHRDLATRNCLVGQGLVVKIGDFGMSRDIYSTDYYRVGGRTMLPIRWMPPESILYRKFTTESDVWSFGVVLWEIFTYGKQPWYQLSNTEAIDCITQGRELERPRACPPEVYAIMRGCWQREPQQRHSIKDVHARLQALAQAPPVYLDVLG

[10] = tested on: Tyrosine-protein kinase BTK (Homo sapiens), Q06187 [R28H]; assay: Inhibition of recombinant full length human BTK R28H mutant assessed as residual activity at 0.5 uM using LSNLYHQGKFLQT as substrate incubated for 40 mins in presence of [gamma-33P]-ATP by scintillation counting method relative to control
Chain of Tyrosine-protein kinase BTK (Homo sapiens), Q06187 [R28H] (Q06187 whole entry R28H, the tested form may be a part): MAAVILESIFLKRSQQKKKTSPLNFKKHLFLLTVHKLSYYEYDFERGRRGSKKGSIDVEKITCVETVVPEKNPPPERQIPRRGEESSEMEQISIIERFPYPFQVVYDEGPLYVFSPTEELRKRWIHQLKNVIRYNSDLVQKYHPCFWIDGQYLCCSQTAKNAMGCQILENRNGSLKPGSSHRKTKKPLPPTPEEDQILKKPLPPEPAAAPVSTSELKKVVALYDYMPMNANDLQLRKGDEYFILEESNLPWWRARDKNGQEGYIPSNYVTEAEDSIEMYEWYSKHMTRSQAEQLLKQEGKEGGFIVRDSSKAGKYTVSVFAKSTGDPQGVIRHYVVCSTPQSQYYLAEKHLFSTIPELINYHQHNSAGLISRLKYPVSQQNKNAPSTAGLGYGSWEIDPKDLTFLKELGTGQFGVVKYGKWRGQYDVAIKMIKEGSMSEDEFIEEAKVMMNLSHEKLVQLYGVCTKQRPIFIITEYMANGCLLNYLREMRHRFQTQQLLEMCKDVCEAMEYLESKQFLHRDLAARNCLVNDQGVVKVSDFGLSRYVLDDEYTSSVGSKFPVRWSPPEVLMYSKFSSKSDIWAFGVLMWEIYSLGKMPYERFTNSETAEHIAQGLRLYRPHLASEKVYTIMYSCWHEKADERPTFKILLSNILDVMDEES

[11] = biological target: Receptor-interacting serine/threonine-protein kinase 2 (Homo sapiens) (UniProt O43353); assay: Inhibition of recombinant human RIPK2 (1 to 299 residues) assessed as residual activity at 0.5 uM using myelin basic protein as substrate incubated for 120 mins in presence of [gamma33P]ATP by scintillation counting based radiometry assay relative to control
Chain of Receptor-interacting serine/threonine-protein kinase 2 (Homo sapiens) (O43353 whole entry, the tested form may be a part): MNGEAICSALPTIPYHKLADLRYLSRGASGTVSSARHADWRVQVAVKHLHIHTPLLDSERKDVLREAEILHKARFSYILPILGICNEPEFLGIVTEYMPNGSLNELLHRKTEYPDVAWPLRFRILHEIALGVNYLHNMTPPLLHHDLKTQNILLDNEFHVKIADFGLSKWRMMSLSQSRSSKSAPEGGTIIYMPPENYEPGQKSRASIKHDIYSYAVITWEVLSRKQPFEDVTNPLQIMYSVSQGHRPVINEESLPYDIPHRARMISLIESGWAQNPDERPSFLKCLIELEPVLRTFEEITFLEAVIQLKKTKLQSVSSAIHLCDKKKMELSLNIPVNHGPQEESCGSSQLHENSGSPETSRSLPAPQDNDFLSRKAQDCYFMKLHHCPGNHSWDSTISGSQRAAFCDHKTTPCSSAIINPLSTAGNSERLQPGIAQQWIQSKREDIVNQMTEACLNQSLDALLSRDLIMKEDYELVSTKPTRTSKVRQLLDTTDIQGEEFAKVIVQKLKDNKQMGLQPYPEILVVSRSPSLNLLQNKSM

[12] = biological target: ALK tyrosine kinase receptor (Homo sapiens, UniProt Q9UM73); assay: Inhibition of human ALK (1058 to end residues) assessed as residual activity at 0.5 uM using KKKSPGEYVNIEFG as substrate incubated for 40 mins in presence of [gamma-33ATP] by scintillation counting based radiometry assay relative to control
Chain of ALK tyrosine kinase receptor (Q9UM73 19-1620 limits assumed): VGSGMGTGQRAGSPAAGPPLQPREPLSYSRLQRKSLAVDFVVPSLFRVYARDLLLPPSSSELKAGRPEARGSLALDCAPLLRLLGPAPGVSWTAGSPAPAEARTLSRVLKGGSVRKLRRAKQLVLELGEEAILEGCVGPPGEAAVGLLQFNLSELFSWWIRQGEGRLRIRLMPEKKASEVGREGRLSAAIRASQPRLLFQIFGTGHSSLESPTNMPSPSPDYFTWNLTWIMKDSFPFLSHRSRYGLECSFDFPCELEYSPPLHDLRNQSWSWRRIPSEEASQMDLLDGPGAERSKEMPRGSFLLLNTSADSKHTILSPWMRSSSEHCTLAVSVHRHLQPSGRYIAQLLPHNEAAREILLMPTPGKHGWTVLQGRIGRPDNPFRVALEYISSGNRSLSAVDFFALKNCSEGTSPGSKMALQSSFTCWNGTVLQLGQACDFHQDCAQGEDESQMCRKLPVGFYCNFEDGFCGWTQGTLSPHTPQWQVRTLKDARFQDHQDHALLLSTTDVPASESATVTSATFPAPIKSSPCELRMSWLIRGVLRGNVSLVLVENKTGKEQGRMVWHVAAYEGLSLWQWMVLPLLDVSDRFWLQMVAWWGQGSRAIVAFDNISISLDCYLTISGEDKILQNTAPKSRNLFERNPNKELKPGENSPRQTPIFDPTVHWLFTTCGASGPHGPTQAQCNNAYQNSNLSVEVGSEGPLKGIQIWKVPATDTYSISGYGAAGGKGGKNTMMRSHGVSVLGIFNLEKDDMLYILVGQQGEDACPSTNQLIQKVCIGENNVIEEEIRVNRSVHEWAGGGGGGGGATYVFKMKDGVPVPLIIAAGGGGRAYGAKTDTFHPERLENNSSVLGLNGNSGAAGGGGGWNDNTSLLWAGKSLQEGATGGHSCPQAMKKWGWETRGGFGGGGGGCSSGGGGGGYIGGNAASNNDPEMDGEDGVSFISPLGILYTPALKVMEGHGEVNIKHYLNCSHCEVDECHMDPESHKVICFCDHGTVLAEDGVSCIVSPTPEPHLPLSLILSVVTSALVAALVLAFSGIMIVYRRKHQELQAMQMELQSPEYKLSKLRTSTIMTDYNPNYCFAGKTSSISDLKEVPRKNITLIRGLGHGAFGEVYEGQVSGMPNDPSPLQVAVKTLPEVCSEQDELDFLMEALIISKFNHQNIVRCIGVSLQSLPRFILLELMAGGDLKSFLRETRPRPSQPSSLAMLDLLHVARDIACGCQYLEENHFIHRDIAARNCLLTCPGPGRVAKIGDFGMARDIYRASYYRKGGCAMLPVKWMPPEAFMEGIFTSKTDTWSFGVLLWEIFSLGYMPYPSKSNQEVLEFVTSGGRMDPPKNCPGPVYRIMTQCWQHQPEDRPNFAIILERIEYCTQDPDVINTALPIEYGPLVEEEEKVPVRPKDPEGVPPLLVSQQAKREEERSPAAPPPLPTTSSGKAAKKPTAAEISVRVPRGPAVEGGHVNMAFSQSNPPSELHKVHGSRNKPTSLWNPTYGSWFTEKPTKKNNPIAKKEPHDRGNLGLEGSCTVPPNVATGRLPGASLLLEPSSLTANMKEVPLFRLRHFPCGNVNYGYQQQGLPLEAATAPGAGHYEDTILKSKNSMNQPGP

[13] = tested on: RAF proto-oncogene serine/threonine-protein kinase (Homo sapiens), P04049 [Y340D,Y341D]; assay: Inhibition of recombinant human C-Raf Y340D/Y341D double mutant (306 to end residues) assessed as residual activity at 0.5 uM poly(Glu, Tyr) 4:1 as substrate incubated 40 mins in presence of [gamma-33ATP] by scintillation counting based radiometry assay relative to control
[14] = biological target: Focal adhesion kinase 1 (Homo sapiens) (UniProt Q05397); assay: Inhibition of recombinant human FAK (411 to 686 residues) assessed as residual activity at 0.5 uM using EEEEYEEEEEEYYIIEEEEEEYEEEEEEYYEEEEEEKKKK as substrate at 40 mins in presence of [gamma-33ATP] by scintillation counting based radiometry assay relative to control
[15] = biological target: Platelet-derived growth factor receptor alpha (Homo sapiens) (UniProt P16234); assay: Inhibition of human PDGFRalpha (550 to end residues) assessed as residual activity at 0.5 uM poly(Glu, Tyr) 4:1 as substrate measured after 40 mins in presence of [gamma33P]ATP by scintillation counting method relative to control
[16] = tested on: BaF3; assay: Antitumor activity against mouse BaF3 cells transfected with LMNA-NTRK1-G595R mutant xenografted in mouse assessed as tumor growth inhibition at 5 to 20 mg/kg, po administered once daily for 21 days and measured twice weekly; conditions: dose 5-20 mg/kg, time 21.0 day
[17] = tested on: Mast/stem cell growth factor receptor Kit (Homo sapiens), P10721 [V654A]; assay: Inhibition of recombinant human C-Kit V654A mutant (544 to end residues) assessed as residual activity at 0.5 uM poly(Glu, Tyr) 4:1 as substrate incubated 40 mins in presence of [gamma-33ATP] by scintillation counting based radiometry assay relative to control
[18] = biological target: Tyrosine-protein kinase JAK3 (Homo sapiens) (UniProt P52333); assay: Inhibition of human JAK3 (781 to end residues) assessed as residual activity at 0.5 uM using GGEEEEYFELVKKKK as substrate after 40 mins by [gamma-33ATP] radiometric assay relative to control
[19] = biological target: T1, High affinity nerve growth factor receptor
Description: Inhibition of TrKA (unknown origin) incubated for 120 mins in presence of 33P-ATP

[20] = C0 in male Sprague-Dawley rat at 2 mg/kg, iv measured up to 24 hrs by LC/MS/MS analysis; assay type: ADME, organism-based; conditions: in vivo
[21] = Tmax in male Sprague-Dawley rat at 10 mg/kg, po measured up to 24 hrs by LC-MS analysis; assay type: ADME, organism-based; conditions: in vivo
[22] = biological target: Fibroblast growth factor receptor 4 (Homo sapiens) (UniProt P22455); assay: Inhibition of recombinant human FGFR4 (442 to 755 residues) assessed as residual activity at 0.5 uM using poly(Glu, Tyr) 4:1 as substrate at 40 mins in presence of [gamma-33ATP] by scintillation counting based radiometry assay relative to control
[23] = biological target: Mast/stem cell growth factor receptor Kit (Homo sapiens) (UniProt P10721); assay: Inhibition of recombinant human c-Kit (544 to end residues) assessed as residual activity at 0.5 uM using poly(Glu, Tyr) 4:1 as substrate measured after 40 mins in presence of [gamma33P]ATP by scintillation counting method
[24] = tested on: Platelet-derived growth factor receptor alpha (Homo sapiens), P16234 [V561D]; assay: Inhibition of human PDGFRalpha V561D mutant (550 to end residues) assessed as residual activity at 0.5 uM using poly(Glu, Tyr) 4:1 as substrate measured after 40 mins in presence of [gamma33P]ATP by scintillation counting based radiometry assay relative to control
[25] = biological target: Hepatocyte growth factor receptor (Homo sapiens) (UniProt P08581); assay: Inhibition of recombinant human MET (974 to end residues) assessed as residual activity at 0.5 uM using KKKGQEEEYVFIE as substrate incubated for 40 mins in presence of [gamma-33ATP by scintillation counting based radiometry assay relative to control
Chain of Hepatocyte growth factor receptor (Homo sapiens) (P08581 whole entry): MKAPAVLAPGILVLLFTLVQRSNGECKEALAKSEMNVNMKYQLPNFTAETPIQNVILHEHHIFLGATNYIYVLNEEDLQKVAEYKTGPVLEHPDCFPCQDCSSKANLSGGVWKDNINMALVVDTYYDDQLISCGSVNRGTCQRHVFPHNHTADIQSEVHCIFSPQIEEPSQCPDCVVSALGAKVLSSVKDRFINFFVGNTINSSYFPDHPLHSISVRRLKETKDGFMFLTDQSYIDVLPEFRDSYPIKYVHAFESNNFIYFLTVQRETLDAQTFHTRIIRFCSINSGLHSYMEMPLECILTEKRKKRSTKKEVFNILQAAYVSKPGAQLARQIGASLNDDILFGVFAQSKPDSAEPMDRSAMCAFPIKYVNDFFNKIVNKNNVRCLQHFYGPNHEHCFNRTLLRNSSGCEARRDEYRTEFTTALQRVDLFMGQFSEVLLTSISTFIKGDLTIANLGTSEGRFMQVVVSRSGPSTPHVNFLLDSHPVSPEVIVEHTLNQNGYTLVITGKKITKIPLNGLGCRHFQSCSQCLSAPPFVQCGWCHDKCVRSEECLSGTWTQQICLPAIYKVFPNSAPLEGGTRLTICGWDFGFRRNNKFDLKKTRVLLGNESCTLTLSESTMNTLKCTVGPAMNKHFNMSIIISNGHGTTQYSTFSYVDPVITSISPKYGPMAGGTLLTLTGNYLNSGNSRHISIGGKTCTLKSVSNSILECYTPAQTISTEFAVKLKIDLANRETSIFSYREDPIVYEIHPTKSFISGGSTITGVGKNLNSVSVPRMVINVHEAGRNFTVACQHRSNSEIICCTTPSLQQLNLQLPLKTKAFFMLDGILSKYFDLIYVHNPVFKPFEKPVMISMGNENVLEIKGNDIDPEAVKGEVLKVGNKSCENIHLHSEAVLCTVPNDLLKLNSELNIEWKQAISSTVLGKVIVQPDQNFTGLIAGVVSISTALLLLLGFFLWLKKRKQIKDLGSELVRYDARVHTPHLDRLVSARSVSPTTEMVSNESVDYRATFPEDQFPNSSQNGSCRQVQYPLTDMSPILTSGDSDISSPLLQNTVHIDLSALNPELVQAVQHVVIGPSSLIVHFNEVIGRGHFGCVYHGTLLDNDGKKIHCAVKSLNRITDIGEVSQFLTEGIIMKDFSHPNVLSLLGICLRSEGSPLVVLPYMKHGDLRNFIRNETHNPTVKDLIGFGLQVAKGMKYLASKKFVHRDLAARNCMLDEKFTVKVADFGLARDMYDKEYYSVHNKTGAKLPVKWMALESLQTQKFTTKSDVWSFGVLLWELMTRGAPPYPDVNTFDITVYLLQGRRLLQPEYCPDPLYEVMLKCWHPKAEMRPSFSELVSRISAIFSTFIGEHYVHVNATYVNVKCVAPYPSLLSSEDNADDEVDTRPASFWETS

## C[C@@H]1CCc2ncc(F)cc2[C@H]2CCCN2c2ccn3ncc(c3n2)C(=O)N1 [SELITRECTINIB]
[1]
  pIC50: ≥ 8.30
[2]
  Activity: Toxic
[3]
  Vd: 0.5 L/kg
[4]
  Activity: Toxic
[5]
  Activity: Toxic
[6]
  Activity: Toxic
[7]
  Activity: Active
[8]
  pIC50: ≥ 8.30

## O=C1NC2(CC2)COc2ncc(F)cc2[C@H]2COCCN2c2ccn3ncc1c3n2
[9]
  Activity: 2%
[10]
  Activity: 74%
[11]
  Activity: 93%
[12]
  Activity: 26%
[13]
  Activity: 103%
[14]
  Activity: 72%
[15]
  Activity: 106%
[16]
  Activity: Active
[17]
  Activity: 105%
[18]
  Activity: 94%
[19]
  pIC50: 8.62
[20]
  C0 at 24 h: 4.12 µM
[21]
  Tmax: 40 min
[22]
  Activity: 114%
[23]
  Activity: 100%
[24]
  Activity: 103%
[25]
  Activity: 98%

From ChEMBL document CHEMBL5034019, “Discovery of the Next-Generation Pan-TRK Kinase Inhibitors for the Treatment of Cancer” (J Med Chem, 2021)
